Measured values: ChEMBL document CHEMBL1201862, “PubChem BioAssay data set” (2004)
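Five compound concentrations were applied to cells in 96-well plates for 48 hours; endpoints were derived by simple linear interpolation of the resulting dose-response curve. GI50 is the concentration that inhibits growth by half.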 The source made the active and inactive calls. Rule as the data show it: active = GI50 up to about 1.1 µM and inactive = higher.

What was measured:
Test in all cases: NCI anticancer screen, dose series, 48 h
[1] = system: OVCAR-8
[2] = system: NCI-H23
[3] = system: SK-MEL-28
[4] = system: HOP-92
[5] = system: SNB-19
[6] = system: HCC 2998
[7] = system: U-251
[8] = system: SR
[9] = system: XF498
[10] = system: DLD-1
[11] = system: SF-268
[12] = system: K562
[13] = system: LOX IMVI
[14] = system: M14
[15] = system: M19-MEL
[16] = system: NCI-H460
[17] = system: OVCAR-3
[18] = system: MOLT-4
[19] = system: DMS-273
[20] = system: UACC-62
[21] = system: A549
[22] = system: KM-20L2
[23] = system: UACC-257
[24] = system: ACHN
[25] = system: SK-MEL-2
[26] = system: HOP-18
[27] = system: RXF 393
[28] = system: IGROV-1
[29] = system: SNB-75
[30] = system: LXFL 529
[31] = system: COLO 205
[32] = system: SF-295
[33] = system: EKVX
[34] = system: A498
[35] = system: DMS-114
[36] = system: KM12
[37] = system: RPMI-8226
[38] = system: SW-620
[39] = system: 786-0
[40] = system: SK-OV-3
[41] = system: OVCAR-4
[42] = system: NCI-H522
[43] = system: HL-60
[44] = system: HCT-15
[45] = system: TK-10
[46] = system: SK-MEL-5
[47] = system: SN12C
[48] = system: CAKI-1
[49] = system: OVCAR-5
[50] = system: CCRF-CEM
[51] = system: SNB-78
[52] = system: HCT-116
[53] = system: HOP-62
[54] = system: HT-29
[55] = system: NCI-H226
[56] = system: SF-539
[57] = system: UO-31
[58] = system: Malme-3M

O=C(O)CCCCCO
GI50 [1]: > 100 µM (inactive)
GI50 [2]: > 100 µM (inactive)
GI50 [3]: > 100 µM (inactive)
GI50 [4]: > 100 µM (inactive)
GI50 [5]: > 100 µM (inactive)
GI50 [6]: > 100 µM (inactive)
GI50 [7]: > 100 µM (inactive)
GI50 [8]: > 100 µM (inactive)
GI50 [9]: > 100 µM (inactive)
GI50 [10]: > 100 µM (inactive)
GI50 [11]: > 100 µM (inactive)
GI50 [12]: > 100 µM (inactive)
GI50 [13]: > 100 µM (inactive)
GI50 [14]: > 100 µM (inactive)
GI50 [15]: > 100 µM (inactive)
GI50 [16]: > 100 µM (inactive)
GI50 [17]: > 100 µM (inactive)
GI50 [18]: > 100 µM (inactive)
GI50 [19]: > 100 µM (inactive)
GI50 [20]: > 100 µM (inactive)
GI50 [21]: > 100 µM (inactive)
GI50 [22]: > 100 µM (inactive)
GI50 [23]: > 100 µM (inactive)
GI50 [24]: > 100 µM (inactive)
GI50 [25]: > 100 µM (inactive)
GI50 [26]: > 100 µM (inactive)
GI50 [27]: > 100 µM (inactive)
GI50 [28]: > 100 µM (inactive)
GI50 [29]: > 100 µM (inactive)
GI50 [30]: > 100 µM (inactive)
GI50 [31]: > 100 µM (inactive)
GI50 [32]: > 100 µM (inactive)
GI50 [33]: > 100 µM (inactive)
GI50 [34]: > 100 µM (inactive)
GI50 [35]: > 100 µM (inactive)
GI50 [36]: > 100 µM (inactive)
GI50 [37]: > 100 µM (inactive)
GI50 [38]: > 100 µM (inactive)
GI50 [39]: > 100 µM (inactive)
GI50 [40]: > 100 µM (inactive)
GI50 [41]: > 100 µM (inactive)
GI50 [42]: > 100 µM (inactive)
GI50 [43]: > 100 µM (inactive)
GI50 [44]: > 100 µM
GI50 [45]: > 100 µM (inactive)
GI50 [46]: > 100 µM (inactive)
GI50 [47]: > 100 µM (inactive)
GI50 [48]: > 100 µM (inactive)
GI50 [49]: > 100 µM (inactive)
GI50 [50]: > 100 µM (inactive)
GI50 [51]: > 100 µM (inactive)
GI50 [52]: > 100 µM (inactive)
GI50 [53]: > 100 µM (inactive)
GI50 [54]: > 100 µM (inactive)
GI50 [55]: > 100 µM (inactive)
GI50 [56]: > 100 µM (inactive)
GI50 [57]: > 100 µM (inactive)
GI50 [58]: > 100 µM (inactive)

C=C(CCCCC)CN1CCCC1C(C)=O (stereo unspecified)
GI50 [1]: 28.6 µM (inactive)
GI50 [2]: 17.4 µM (inactive)
GI50 [3]: 57.3 µM (inactive)
GI50 [4]: 20.3 µM (inactive)
GI50 [5]: > 62.1 µM (inactive)
GI50 [6]: 32.4 µM (inactive)
GI50 [7]: 30.6 µM (inactive)
GI50 [8]: 14.9 µM (inactive)
GI50 [9]: 15 µM (inactive)
GI50 [10]: 24.7 µM (inactive)
GI50 [11]: 42.3 µM (inactive)
GI50 [12]: 15 µM (inactive)
GI50 [13]: 18.8 µM (inactive)
GI50 [14]: 41.5 µM (inactive)
GI50 [15]: 28.9 µM (inactive)
GI50 [16]: 29 µM (inactive)
GI50 [17]: 27.9 µM (inactive)
GI50 [18]: 8.75 µM (inactive)
GI50 [19]: 21.5 µM (inactive)
GI50 [20]: 25.4 µM (inactive)
GI50 [21]: 32.9 µM (inactive)
GI50 [22]: 29.4 µM (inactive)
GI50 [23]: 26.6 µM (inactive)
GI50 [24]: 25.5 µM (inactive)
GI50 [25]: 26.1 µM (inactive)
GI50 [26]: 28.9 µM (inactive)
GI50 [27]: 34.1 µM (inactive)
GI50 [28]: 33.2 µM (inactive)
GI50 [29]: 24.7 µM (inactive)
GI50 [30]: 27.3 µM (inactive)
GI50 [31]: 17.1 µM (inactive)
GI50 [32]: 26.8 µM (inactive)
GI50 [33]: 35 µM (inactive)
GI50 [34]: 35 µM (inactive)
GI50 [35]: 15 µM (inactive)
GI50 [36]: 33 µM (inactive)
GI50 [37]: 13.1 µM (inactive)
GI50 [38]: > 57.9 µM (inactive)
GI50 [39]: 35.5 µM (inactive)
GI50 [40]: 31.2 µM (inactive)
GI50 [41]: 4.45 µM (inactive)
GI50 [42]: 11.4 µM (inactive)
GI50 [43]: 4.32 µM (inactive)
GI50 [44]: 31.6 µM
GI50 [45]: 38.1 µM (inactive)
GI50 [46]: 17.9 µM (inactive)
GI50 [47]: 29.1 µM (inactive)
GI50 [48]: 34.7 µM (inactive)
GI50 [49]: 22.2 µM (inactive)
GI50 [50]: 12.9 µM (inactive)
GI50 [51]: 26.1 µM (inactive)
GI50 [52]: 27.6 µM (inactive)
GI50 [53]: 22.3 µM (inactive)
GI50 [54]: 29.6 µM (inactive)
GI50 [55]: 22 µM (inactive)
GI50 [56]: 35.6 µM (inactive)
GI50 [57]: 31.4 µM (inactive)
GI50 [58]: 41.8 µM (inactive)
